Results taken from patent US20210355106A1, “NEW AMINO-PYRIMIDONYL-PIPERIDINYL DERIVATIVES, A PROCESS FOR THEIR PREPARATION AND PHARMACEUTICAL COMPOSITIONS CONTAINING THEM” (LES LABORATOIRES SERVIER, priority 2018, published 2021).

Legend:
[1] = molecular target: T1, USP7 (Homo sapiens, UniProt Q93009, C315A); assay: Inhibition of USP7 by Fluorescence Intensity (FLINT) readings, Ubiquitin-Rhodamine-110 substrate; format: biochemical; settings: 0.25 nM His-His-USP7 (aa208-560), 60 minutes at 30° C. preincubation; Ki determined from IC50 according to Cer et al.
T1 construct: 0.25 nM His-His-USP7 (aa208-560, |C315A|) was incubated with compound; His-His (N)
Experimental: USP7 activity was measured using Rhodamine-110 c-terminal labelled Ubiquitin as a substrate (UbiQ Bio), Incubation with USP7 results in the release of Rhodamine-110 leading to an increase in fluorescence which can be used in the continuous measurement of USP7 activity.
The USP7 reactions were performed in a 50 μL volume, in 384 well black solid low binding plates (Corning #3575). The reaction buffer consisted of 100 mM Bicine pH 8.0, 0.01% TritonX 100, 1 mM TCEP, and 10% DMSO.
0.25 nM His-His-USP7 (aa208-560, |C315A|) was incubated with compound (final concentration 10% DMSO) for 60 minutes at 30° C. The reaction was then initiated by the addition of 50) nM Ubiquitin-Rhodamine-110 substrate or 4 μM Ubiquitin-Rhodamine-110 substrate and the plate read every 3 minutes for 21 minutes to measure the release of Rhodamine-110. Fluorescence Intensity (FLINT) readings were measured using a Biomek Neo plate reader (Ex.485 nm, Em.535 nm).
The inhibition of increasing doses of compound was expressed as a percentage reduction in kinetic rate compared to the kinetic rates established between ‘DMSO only’ and ‘total inhibition’ controls (no USP7). The inhibitory concentrations that gave a 50% reduction in kinetic rate (IC50) were determined, from 11-point dose response curves, in XL-Fit using a 4-Parameter Logistic Model 205 (Sigmoidal Dose-Response Model). The K, values were determined from the IC50 values according to Cer et al. Nucleic Acids Res. 2009, July 1; 37 (WebServer issue): W441-W445.

[2] = test system: Z138 mantle cell lymphoma tumour cell lines; assay: In vitro cytotoxicity, MTT assay; format: cell-based; settings: Homo sapiens, Z-138; Z138 cells, exposed to the test compounds for 96 hours
Experimental: The cytotoxicity studies were evaluated by MTT [3-(4,5-dimethylthiaxol-2-yl)-2,5-diphenyltetrazolium bromide|assay and carried out on Z138 mantle cell lymphoma tumour cell lines. The cells are distributed onto microplates and exposed to the test compounds for 96 hours. MTT is then added for 4 hours and converted by NAD(P)H-dependent cellular oxidoreductase enzymes in forma/an, which has a purple color. The viable cell number is proportional to the production of formazan salts and cell viability can be quantified by the absorbance of the solution at 540 nm with a spectrophotometer (Carmichael et al., Cancer Res. 1987, 47, 936-942).

T1 sequence (Q93009 208-560 C315A): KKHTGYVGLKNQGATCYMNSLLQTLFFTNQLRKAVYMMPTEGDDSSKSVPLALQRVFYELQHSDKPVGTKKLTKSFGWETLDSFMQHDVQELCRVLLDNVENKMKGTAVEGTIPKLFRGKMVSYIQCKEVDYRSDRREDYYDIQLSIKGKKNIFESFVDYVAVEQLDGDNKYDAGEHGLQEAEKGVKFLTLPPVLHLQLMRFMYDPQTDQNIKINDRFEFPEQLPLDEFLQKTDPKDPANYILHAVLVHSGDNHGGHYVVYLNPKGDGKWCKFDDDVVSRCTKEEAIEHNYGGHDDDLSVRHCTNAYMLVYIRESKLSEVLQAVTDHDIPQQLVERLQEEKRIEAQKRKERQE

| Compound | Ki [1] [µM] | IC50 [2] [µM] |
| --- | --- | --- |
| Nc1c(Oc2ccc(F)cc2)ncn(CC2(O)CCN(C(=O)[C@@H]3CCN(S(=O)(=O)c4ccccc4)C[C@H]3c3ccccc3)CC2)c1=O [Example 30, 5-amino-3-({1-[(3R,4R)-1-(benzenesulfonyl)-3-phenyl-piperidine-4-carbonyl]A-hydroxy-4-piperidyl]methyl]-6-(4-fluorophenoxy)pyrimidin-4-one] | 0.0284 | 0.0091 |
| Nc1c(Oc2ccc(F)cc2)ncn(CC2(O)CCN(C(=O)[C@@H]3CCN(C4(c5ccccc5)COC4)C[C@H]3c3ccccc3)CC2)c1=O [Example 108, 5-amino-6-(4-fluorophenoxy)-3-[[4-hydroxy-1-((3R,4R)-3-phenyl-1-(3-phenyloxetan-3-yl)piperidine-4-carbonyl]-4-piperidyl]methyl]pyrimidin-4-one] | 0.063 | 0.05 |
| COc1cc(Oc2ncn(C[C@@]3(O)CCN(C(=O)[C@@H]4CCN(Cc5cccnn5)C[C@H]4c4ccccc4)CC3(F)F)c(=O)c2N)ccc1F [Example 214] | 0.0483 | 0.0313 |
| Cc1ccc(-c2cncc(C(=O)N3CC[C@@H](C(=O)N4CCC(O)(Cn5cnc(Oc6ccc(F)cc6)c(N)c5=O)CC4)[C@H](c4ccccc4)C3)c2)cn1 [Example 34, 5-amino-6-(4-fluorophenoxy)-3-({4-hydroxy-1-[(3R,4R)-1-(6′-methyl[3,3′-bipyridine]-5-carbonyl)-3-phenylpiperidine-4-carbonyl]piperidin-4-yl}methyl)pyrimidin-4(3H)-one] | 0.00358 | 0.011 |
| Cc1ccc(-c2cccc(NC(=O)N3CC[C@@H](C(=O)N4CCC(O)(Cn5cnc(Oc6ccc(F)cc6)c(N)c5=O)CC4)[C@H](c4ccccc4)C3)c2)cn1 [Example 85, (3R,4R)-4-[4-[[5-amino-4-(4-fluorophenoxy)-6-oxo-pyrimidin-1-yl]methyl]-4-hydroxy-piperidine-1-carbonyl]-N-[3-(6-methyl-3-pyridyl)phenyl]-3-phenyl-piperidine-1-carboxamide] | 0.0099 | 0.034 |
| Cn1cnc2ccc(C(=O)N3CC[C@@H](C(=O)N4CCC(O)(Cn5cnc(Oc6ccc(F)cc6)c(N)c5=O)CC4)[C@H](c4ccccc4)C3)cc2c1=O [Example 123, 6-[(3R,4R)-4-(4-({5-amino-4-(4-fluorophenoxy)-6-oxopyrimidin-1(6H)-yl]methyl)-4-hydroxypiperidine-1-carbonyl)-3-phenylpiperidine-1-carbonyl]-3-methylquinazolin-4(3H)-one] | 0.00692 | 0.0432 |
| Cc1nc(C2CC(F)(F)C2)sc1C(=O)N1CC[C@@H](C(=O)N2CCC(O)(Cn3cnc(Oc4ccc(F)cc4)c(N)c3=O)CC2)[C@H](c2ccccc2)C1 [Example 189] | 0.0111 | 0.00634 |
| Cc1cc(C(=O)N2CC[C@@H](C(=O)N3CCC(O)(Cn4cnc(Oc5ccc(F)cc5)c(N)c4=O)CC3)[C@H](c3ccccc3)C2)ccn1 [Example 91, 5-amino-6-(4-fluorophenoxy)-3-[[4-hydroxy-1-[(3R,4R)-1-(2-methylpyridine-4-carbonyl)-3-phenyl-piperidine-4-carbonyl]4-piperidyl]methyl]pyrimidin-4-one] | 0.013 | 0.076 |
| Cc1nc(-c2ccc(N(C)C)nc2)sc1C(=O)N1CC[C@@H](C(=O)N2CCC(O)(Cn3cnc(Oc4ccc(F)cc4)c(N)c3=O)CC2)[C@H](c2ccccc2)C1 [Example 43, 5-amino-3-({1-[(3R,4R)-1-{2-[16-(dimethylamino)pyridin-3-yl-4-methyl-1,3-thiazole-5-carbonyl}-3-phenylpiperidine-4-carbonyl]-4-hydroxypiperidin-4-yl]}methyl)-6-(4-fluorophenoxy)pyrimidin-4(3H)-one] | 0.00642 | 0.0012 |
| Cn1c(C(=O)N2CC[C@@H](C(=O)N3CCC(O)(Cn4cnc(Oc5ccc(F)cc5)c(N)c4=O)CC3)[C@H](c3ccccc3)C2)cnc1Br [Example 95, 5-amino-3-({1-[(3R,4R)-1-(2-bromo-1-methyl-11H-imidazole-5-carbonyl)-3-phenylpiperidine-4-carbonyl]-4-hydroxypiperidin-4-yl}methyl)-6-(4-fluorophenoxy)pyrimidin-4(3H)-one] | 0.021 | 0.027 |
| Cc1cncc(CN2CC[C@@H](C(=O)N3CC[C@](O)(Cn4cnc(Oc5ccc(F)cc5)c(N)c4=O)C(F)(F)C3)[C@H](c3ccccc3)C2)n1 [Example 207, 5-amino-3-[[(4S)-3,3-difluoro-4-hydroxy-1-[(3R,4R)-1-[(6-methylpyrazin-2-yl)methyl]-3-phenyl-piperidine-4-carbonyl]-4-piperidyl]methyl]-6-(4-fluorophenoxy)pyrimidin-4-one] | 0.0274 | 0.0118 |
| Cc1nccc(CN2CC[C@@H](C(=O)N3CC[C@](O)(Cn4cnc(Oc5ccc(Cl)c(F)c5)c(N)c4=O)C(F)(F)C3)[C@H](c3ccccc3)C2)n1 [Example 147] | 0.019 | 0.0487 |
| Nc1c(Oc2ccc(F)cc2)ncn(CC2(O)CCN(C(=O)[C@@H]3CCN(C(=O)c4sc(Cl)c(Br)c4F)C[C@H]3c3ccccc3)CC2)c1=O [Example 106, 5-amino-3-[[I-[(3R,4R)-1-(4-bromo-5-chloro-3-fluoro-thiophene-2-carbonyl)-3-phenyl-piperidine-4-carbonyl]-4-hydroxy-4-piperidyl]methyl]-6-(4-fluorophenoxy)pyrimidin-4-one] | 0.015 | 0.0186 |
| Cc1cnc(CN2CC[C@@H](C(=O)N3CC[C@](O)(Cn4cnc(Oc5ccc(Cl)cc5)c(N)c4=O)C(F)(F)C3)[C@H](c3ccccc3)C2)cn1 [Example 221, 5-amino-6-(4-chlorophenoxy)-3-[[(4S)-3,3-difluoro-4-hydroxy-1-[(3R,4R)-1-[(5-methylpyrazin-2-yl)methyl]-3-phenyl-piperidine-4-carbonyl]-4-piperidyl]methyl]pyrimidin-4-one] | 0.0355 | 0.0102 |
| Cc1nccc(CN2CC[C@@H](C(=O)N3CC[C@](O)(Cn4cnc(Oc5cccc(C(F)(F)F)c5)c(N)c4=O)C(F)(F)C3)[C@H](c3ccccc3)C2)n1 [Example 143, 5-amino-3-[[(4S)-3,3-difluoro-4-hydroxy-1-[(3R,4R)-1-[(2-methylpyrimidin-4-yl)methyl]-3-phenyl-piperidine-4-carbonyl]-4-piperidyl]methyl]-6-(3-(trifluoromethyl)phenoxy]pyrimidin-4-one] | 0.042 | 0.217 |
| Nc1c(Oc2ccc(F)cc2)ncn(CC2(O)CCN(C(=O)[C@@H]3CCN(C(=O)c4cscn4)C[C@H]3c3ccccc3)CC2)c1=O [Example 28, 5-amino-6-(4-fluorophenoxy)-3-[[4-hydroxy-1-[(3R,4R)-3-phenyl-1-thiazole-4-carbonyl)piperidine-4-carbonyl-4-piperidyl]methyl]pyrimidin-4-one] | 0.0641 | 0.138 |
| COc1ccc(NC(=O)N2CC[C@@H](C(=O)N3CCC(O)(Cn4cnc(Oc5ccc(F)cc5)c(N)c4=O)CC3)[C@H](c3ccccc3)C2)cc1 [Example 80] | 0.019 | 0.0062 |
| CN(C(=O)CN1CC[C@@H](C(=O)N2CCC(O)(Cn3cnc(Oc4ccc(F)cc4)c(N)c3=O)CC2)[C@H](c2ccccc2)C1)c1ccccc1 [Example 74] | 0.078 | 0.07 |
| Nc1c(Oc2ccc(F)cc2)ncn(CC2(O)CCN(C(=O)[C@@H]3CCN(C(=O)C4(c5ccccc5)CC4)C[C@H]3c3ccccc3)CC2)c1=O [Example 132] | 0.0354 | 0.0478 |
| Nc1c(Oc2ccc(F)cc2)ncn(CC2(O)CCN(C(=O)[C@@H]3CCN(Cc4cccnc4)C[C@H]3c3ccccc3)CC2)c1=O [Example 62, 5-amino-6-(4-fluorophenoxy)-3-[(4-hydroxy-1-{(3R,4R)-3-phenyl-1-[(pyridin-3-yl)methyl]piperidine-4-carbonyl)piperidin-4-yl)methyl]pyrimidin-4(3H)-one] | 0.014 | 0.014 |
| Nc1c(Oc2ccc(F)cc2)ncn(CC2(O)CCN(C(=O)[C@@H]3CCN(C(=O)Nc4ccccc4)C[C@H]3c3ccccc3)CC2)c1=O [Example 76, (3R,4R).4-[4-[[5-amino-4-(4-fluorophenoxy)-6-oxo-pyrimidin-1-yl]methyl]-4-hydroxy-piperidine-1-carbonyl]-N,3-diphenyl-piperidine-1-carboxamide] | 0.017 | 0.022 |
| Cc1ccc(-c2ccc(S(=O)(=O)N3CC[C@@H](C(=O)N4CCC(O)(Cn5cnc(Oc6ccc(F)cc6)c(N)c5=O)CC4)[C@H](c4ccccc4)C3)s2)cn1 [Example 117] | 0.0286 | 0.0276 |
